From patent US8715684B2, “Peptides inducing a CD4i conformation in HIV gp120 while retaining vacant CD4 binding site” (priority 2007, dated 2014)
Entries after “also recorded” stand apart in the source; their conditions may differ. Where two headings read alike, the source gives them in different places.

How the values were obtained:
[1] = tested on: gp120451; experiment: Dot blot of phage-displayed peptides incubated with gp120451, probed with defining mAbs or CD4 (FIG. 1, 4); assay type: binding, HIV-1
Experimental: Phages expressing the m1 peptide as protein fusions (m1) or not (fth1, as a negative control) were applied to nitrocellulose membranes as dots and incubated with or without gp120451. After washing, the filters were probed with either anti-gp120 mAb or the CG10 mAb as indicated and signals were developed by enhanced chemiluminescence (ECL)
Of the gp120-binding peptides isolated, one was particularly unique. […] As noted above, binding of CG10 to its epitope is absolutely dependent on the CD4i conformation of gp120. It was concluded that m1 binds to the CD4 binding site and acts as a CD4 mimetic, triggering a structural rearrangement locking gp120 into the CD4i conformation.
Because the CD4i conformation of gp120 can disrupt the integrity/accessibility of important neutralizing epitopes of gp120 [e.g. b12 (Xiang et al., 2002, supra)] the binding of a panel of neutralizing antibodies was tested.

[2] = tested on: gp120BaL; experiment: Dot blot of m2 phages with gp120BaL, probed with panel of defining mAbs (FIG. 8); assay type: binding, HIV-1
Excerpt: Each dot was applied in duplicate.
A second measure of “improved peptide” characteristics is the ability to bind gp120s derived from other HIV-1 isolates. (m1 was developed using gp120451.) The preference was to identify a peptide that has the same type of effect on the BaL isolate of HIV-1 as does the m1-peptide for the 451 isolate.

[3] = tested on: gp120; conditions: for Kd: quantitative ELISA, FIG. 7
[4] = target: CD4 (Homo sapiens, UniProt P01730); experiment: Capture ELISA of m1 phages with CD4 alone (FIG. 2E); assay type: binding; conditions: CD4 without gp120
Excerpt: Anti-M13 (phage) antibody was adsorbed to microplate wells to capture either m1 peptide-expressing phages (A, B, D, E) or fth1-negative control phage (C).

[5] = tested on: gp120JR-FL; experiment: Binding of peptides to gp120 of the JR-FL isolate; set-up: species or system HIV-1

Sequence	binding of CD4BS mAbs b12, b6 and m14 to peptide/gp120 complex [1]	induction of the CG10 epitope (CG10 mAb binding to peptide/gp120451 complex) ([1]; phage-displayed peptide)	CD4 binding by peptide-captured gp120BaL [2]	induction of CD4i epitopes (CG10, 17b) in gp120BaL [2]	integrity of neutralizing / CD4BS epitopes (2G12, b12, b6, m14) in peptide-captured gp120BaL [2]	binding to gp120BaL ([2]; phage-displayed peptide)	fold increase in binding / affinity for gp120 versus m1 ([3]; compared with m1)	Kd ([3]; read-out: KD for gp120 binding)	Kd ([3]; read-out: apparent affinity constant for gp120 binding)	binding of CD4 to peptide/gp120 complex [1]	binding to gp120451 ([1]; phage-displayed peptide)	binding of peptide to CD4 alone [4]	binding to gp120JR-FL [5]
CDRRDLPDWAIRAC [m2]	without interfering with b12, b6 or m14 binding	induced CG10 binding	is able to bind CD4 itself	induces CD4i epitopes; also recorded: induces both the CG10 and 17b epitopes	maintains the integrity of the CD4BS epitopes; also recorded: intact and available	binds m2 peptide; also recorded: binds also to gp120BaL	10 fold	6.5 nM	6.5 nM				
CDRRDLPQWAKREC [m1]	bind the m1/gp120 complex very well; also recorded: without interfering with b12, b6 or m14 binding	elicit the CG10 epitope; also recorded: CG10 bound the complex; also recorded: induces the CG10 epitope; also recorded: induced CG10 binding								CD4 itself bound the m1/gp120 complex	specifically bind gp120; also recorded: binds gp120; also recorded: binds to gp120451	no affinity for CD4 alone; also recorded: CD4 does not bind m1	not to gp120JR-FL
